Experimental data published in the NIST ThermoML archive (doi:10.1021/je060271a).
Numbers after ± are expanded uncertainties.

Settings: 323.15 K, Liquid, Vibrating tube method

CCCCCCCC(=O)OCC(COC(=O)CCCCCCC)(COC(=O)CCCCCCC)COC(=O)CCCCCCC [pentaerythritol tetraoctanoate]
Settings	mass density [kg/m3]
1092.7 kPa	941.3 ± 1.1
1117.7 kPa	941.4 ± 1.1
1150.2 kPa	941.4 ± 1.1
1178 kPa	941.4 ± 1.1
1206.8 kPa	941.4 ± 1.1
1237.7 kPa	941.5 ± 1.1
1275.6 kPa	941.4 ± 1.1
1308.8 kPa	941.4 ± 1.1
1344.2 kPa	941.6 ± 1.1
1380.8 kPa	941.4 ± 1.1
1426.8 kPa	941.7 ± 1.1
1467.5 kPa	941.6 ± 1.1
1510.3 kPa	941.7 ± 1.1
1707.2 kPa	941.7 ± 1.1
1720.8 kPa	941.6 ± 1.1
1734.6 kPa	941.9 ± 1.1
1749 kPa	941.8 ± 1.1
1766.8 kPa	941.8 ± 1.1
1780.8 kPa	941.9 ± 1.1
1795.7 kPa	941.8 ± 1.2
1810.5 kPa	941.9 ± 1.1
1828.9 kPa	941.8 ± 1.2
1844.2 kPa	941.8 ± 1.1
1859.6 kPa	942 ± 1.1
1875.8 kPa	941.8 ± 1.2
1895.2 kPa	942 ± 1.1
1915.1 kPa	941.9 ± 1.1
1932.3 kPa	942 ± 1.1
1947.8 kPa	942 ± 1.1
1957.8 kPa	942 ± 1.1
1963.7 kPa	942 ± 1.1
1968.9 kPa	942 ± 1.1
1974 kPa	942 ± 1.1
1987.2 kPa	942.1 ± 1.1
2016.7 kPa	941.9 ± 1.1
2142.1 kPa	942 ± 1.1
2259.4 kPa	942.1 ± 1.2
2339.7 kPa	942.1 ± 1.2
2352.9 kPa	942.3 ± 1.2
2366.5 kPa	942.3 ± 1.1
2382.6 kPa	942.2 ± 1.2
2409.7 kPa	942.5 ± 1.1
2426.8 kPa	942.3 ± 1.2
2441.1 kPa	942.3 ± 1.2
2454.6 kPa	942.4 ± 1.1
2468.6 kPa	942.2 ± 1.1
2486 kPa	942.4 ± 1.2
2500.4 kPa	942.4 ± 1.2
2515.6 kPa	942.2 ± 1.1
2533.2 kPa	942.4 ± 1.1
2546 kPa	942.5 ± 1.1
2554.1 kPa	942.4 ± 1.2
2597 kPa	942.4 ± 1.1
2605 kPa	942.4 ± 1.1
2612.9 kPa	942.4 ± 1.1
2622.5 kPa	942.4 ± 1.2
2630.8 kPa	942.4 ± 1.2
2639.1 kPa	942.4 ± 1.1
2648.3 kPa	942.4 ± 1.1
2656.5 kPa	942.4 ± 1.1
2664.8 kPa	942.5 ± 1.1
2674.9 kPa	942.5 ± 1.1
2683.4 kPa	942.5 ± 1.2
2692.2 kPa	942.4 ± 1.2
2701.1 kPa	942.4 ± 1.1
2709.7 kPa	942.4 ± 1.1
2720 kPa	942.5 ± 1.2
2728.5 kPa	942.4 ± 1.2
2737.3 kPa	942.5 ± 1.1
2746.3 kPa	942.5 ± 1.2
2756.7 kPa	942.6 ± 1.2
2765.4 kPa	942.6 ± 1.2
2775.6 kPa	942.5 ± 1.2
2784.8 kPa	942.5 ± 1.2
2793.7 kPa	942.6 ± 1.2
2803.2 kPa	942.6 ± 1.2
2814.5 kPa	942.5 ± 1.2
2821.9 kPa	942.6 ± 1.2
2832.7 kPa	942.6 ± 1.2
2841.7 kPa	942.5 ± 1.2
2852.6 kPa	942.6 ± 1.2
2862.2 kPa	942.5 ± 1.2
2871.5 kPa	942.6 ± 1.2
2880.9 kPa	942.6 ± 1.2
2892.2 kPa	942.6 ± 1.2
2901.4 kPa	942.6 ± 1.2
2911.2 kPa	942.6 ± 1.2
2922.7 kPa	942.6 ± 1.2
2932.2 kPa	942.6 ± 1.2
2944 kPa	942.6 ± 1.2
2953.7 kPa	942.6 ± 1.2
2963.9 kPa	942.6 ± 1.2
2974 kPa	942.7 ± 1.2
2983.7 kPa	942.7 ± 1.2
2995.7 kPa	942.7 ± 1.2
3005.6 kPa	942.6 ± 1.2
3016 kPa	942.6 ± 1.2
3027.9 kPa	942.7 ± 1.2
3038.3 kPa	942.7 ± 1.2
3048.7 kPa	942.7 ± 1.2
3059.1 kPa	942.7 ± 1.2
3071.6 kPa	942.8 ± 1.2
3082 kPa	942.7 ± 1.2
3092.6 kPa	942.7 ± 1.2
3105.1 kPa	942.7 ± 1.2
3115.6 kPa	942.8 ± 1.2
3128.6 kPa	942.7 ± 1.2
3139.4 kPa	942.6 ± 1.2
3150.3 kPa	942.7 ± 1.2
3159 kPa	942.7 ± 1.2
3173.9 kPa	942.8 ± 1.2
3185.2 kPa	942.8 ± 1.2
3196.4 kPa	942.8 ± 1.2
3207.5 kPa	942.8 ± 1.2
3220.5 kPa	942.8 ± 1.2
3232.3 kPa	942.8 ± 1.2
3243.6 kPa	942.8 ± 1.2
3257.1 kPa	942.9 ± 1.2
3268.7 kPa	942.8 ± 1.2
3280 kPa	942.8 ± 1.2
3291.9 kPa	942.9 ± 1.2
3306.1 kPa	942.9 ± 1.2
3317.8 kPa	942.8 ± 1.2
3329.5 kPa	942.9 ± 1.2
3343.6 kPa	942.8 ± 1.2
3355.4 kPa	942.9 ± 1.2
3367.5 kPa	943 ± 1.2
3380.2 kPa	943 ± 1.2
3392.6 kPa	943.1 ± 1.2
3407.2 kPa	943 ± 1.2
3419.3 kPa	942.9 ± 1.2
3431.8 kPa	943.1 ± 1.2
3446.7 kPa	943 ± 1.2
3459.2 kPa	942.9 ± 1.2
3469.6 kPa	942.9 ± 1.2
3479.3 kPa	943 ± 1.2
3494.5 kPa	942.9 ± 1.2
3507.4 kPa	943 ± 1.2
3540.6 kPa	943 ± 1.2
3553.8 kPa	942.9 ± 1.2
3567 kPa	943.1 ± 1.2
3580 kPa	943.1 ± 1.2
3710.3 kPa	943.1 ± 1.2
3724.8 kPa	943.2 ± 1.2
3743.3 kPa	943 ± 1.2
3756.8 kPa	943.3 ± 1.2
3771.5 kPa	943.2 ± 1.2
